Test results from patent publication US9611249B2, “1H-indazole-3-carboxamide compounds as glycogen synthase kinase 3 beta inhibitors” (AZIENDE CHIMICHE RIUNITE ANGELINI FRANCESCO A.C.R.A.F. …, priority 2012, dated 2017).
pIC50: −log10 of the molar value. Counter-ions that a name gives are not always drawn.

molecular target: T1, human GSK-3β (Homo sapiens (Human), UniProt P49841); test: GSK-3β LanthaScreen TR-FRET Eu Kinase binding and displacement assay; details: compounds 16 to 41, LanthaScreen TR-FRET binding and displacement assay, five concentrations 100 μM to 10 nM
T1 sequence (P49841 whole entry): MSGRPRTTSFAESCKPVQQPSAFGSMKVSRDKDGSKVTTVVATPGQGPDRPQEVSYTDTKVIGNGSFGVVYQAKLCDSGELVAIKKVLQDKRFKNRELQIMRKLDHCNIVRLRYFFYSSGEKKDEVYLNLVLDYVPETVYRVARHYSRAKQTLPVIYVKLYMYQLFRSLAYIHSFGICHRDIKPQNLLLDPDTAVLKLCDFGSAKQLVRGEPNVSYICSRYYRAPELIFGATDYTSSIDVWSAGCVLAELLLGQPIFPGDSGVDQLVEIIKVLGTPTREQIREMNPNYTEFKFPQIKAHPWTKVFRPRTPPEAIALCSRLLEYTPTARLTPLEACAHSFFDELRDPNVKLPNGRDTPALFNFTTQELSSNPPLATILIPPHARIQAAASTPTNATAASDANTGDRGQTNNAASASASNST
Procedure: In a second assay, the same compounds were assayed at five concentrations ranging from 100 μM to 10 nM with ten-fold dilutions in duplicate. Compounds 1 to 15 were tested using the same first assay, compounds 16 to 41 were tested in another assay based on the binding and displacement of AlexaFluor® 647 labeled, ATP-competitive Kinase inhibitor scaffold using LanthaScreen™ TR-FRET technology Eu Kinase assay packet according to manufacturer's instruction (Life Technologies, Italy).
(§1) The IC50 values (concentration causing a half maximal inhibition of control specific activity), reported in table 4, were determined by non-linear regression analysis of the inhibition curves generated with mean replicate values using Hill equation curve fitting.

Compound	pIC50
COCCN1CCC(CNC(=O)c2n[nH]c3ccc(-c4ccccc4C)cc23)CC1 [Compound 16, N-{[1-(2-methoxyethyl)piperidin-4-yl]methyl}-5-(2-methylphenyl)-1H-indazole-3-carboxamide]	6.24
CCOc1cc(F)c(F)cc1-c1ccc2[nH]nc(C(=O)NCC3CCN(CCOC)CC3)c2c1 [Compound 18, 5-(2-ethoxy-4,5-difluorophenyl)-N-{[1-(2-methoxyethyl)piperidin-4-yl]methyl}-1H-indazole-3-carboxamide]	5.97
COc1ccc2[nH]nc(C(=O)NCC3CCN(CCCC(=O)O)CC3)c2c1 [Compound 24, 4-[4-({[(5-methoxy-1H-indazol-3-yl)carbonyl]amino}methyl)piperidin-1-yl] butanoic acid]	5.99
O=C(O)CN1CCC(CNC(=O)c2n[nH]c3ccc(-c4cncnc4)cc23)CC1 [Compound 25, {4-[({[5-(Pyrimidin-5-yl)-1H-indazol-3-yl]carbonyl}amino)methyl]piperidin-1-yl}acetic acid hydrate]	6.66
O=C(NCC1CCNCC1)c1n[nH]c2ccc(Br)cc12 [Compound 25b, 5-Bromo-N-(piperidin-4-ylmethyl)-1H-indazole-3-carbox-amide hydrochloride]	6.28
Cc1noc(C)c1-c1ccc2[nH]nc(C(=O)NCC3CCN(CC(=O)O)CC3)c2c1 [Compound 26, {4-[({[5-(3,5-Dimethylisoxazol-4-yl)-1H-indazol-3-yl]carbonyl}amino)methyl]piperidin-1-yl}acetic acid hydrate]	6.04
O=C(O)CN1CCC(CNC(=O)c2n[nH]c3ccc(-c4cccc(Cl)c4Cl)cc23)CC1 [Compound 27, {4-[({[5-(2,3-dichlorophenyl)-1H-indazol-3-yl]carbonyl}amino)methyl]piperidin-1-yl}acetic acid hydrate]	7.00
O=C(O)CN1CCC(CNC(=O)c2n[nH]c3ccc(-c4cccc(F)c4)cc23)CC1 [Compound 28, {4-[({[5-(3-fluorophenyl)-1H-indazol-3-yl]carbonyl}amino)methyl]piperidin-1-yl} acetic acid hydrate]	6.96
COc1cncc(-c2ccc3[nH]nc(C(=O)NCC4CCN(CC(=O)O)CC4)c3c2)c1 [Compound 30, {4-[({[5-(5-methoxypyridin-3-yl)-1H-indazol-3-yl]carbonyl}amino)methyl]piperidin-1-yl}acetic acid]	7.70
CC(C)c1ccc2[nH]nc(C(=O)NCC3CCN(CC(=O)O)CC3)c2c1 [Compound 32, {4-[({[5-(propan-2-yl)-1H-indazol-3-yl]carbonyl}amino)methyl]piperidin-1-yl} acetic acid]	5.41
O=C(O)CN1CCC(CNC(=O)c2n[nH]c3ccc(C4=CCOCC4)cc23)CC1 [Compound 33, {4-[({[5-(3,6-dihydro-2H-pyran-4-yl)-1H-indazol-3-yl]carbonyl}amino)methyl]piperidin-1-yl}acetic acid]	5.98
O=C(O)CN1CCC(CNC(=O)c2n[nH]c3ccc(C4CCCCC4)cc23)CC1 [Compound 34, [4-({[(5-cyclohexyl-1H-indazol-3-yl)carbonyl]amino}methyl)piperidin-1-yl] acetic acid]	5.97
CCCCCc1ccc2[nH]nc(C(=O)NCC3CCN(CC(=O)O)CC3)c2c1 [Compound 35, [4-({[(5-pentyl-1H-indazol-3-yl)carbonyl]amino}methyl)piperidin-1-yl] acetic acid]	5.69
COc1ccc2[nH]nc(C(=O)NCC3CCN(CCCNC(=O)c4ccccc4)CC3)c2c1 [Compound 36, 5-methoxy-N-[(1-{3-[(phenylcarbonyl)amino]propyl}piperidin-4-yl)methyl]-1H-indazole-3-carboxamide]	5.47
CCCC(=O)NCCCN1CCC(CNC(=O)c2n[nH]c3ccc(OC)cc23)CC1 [Compound 37, N-({1-[3-(butanoylamino)propyl]piperidin-4-yl}methyl)-5-methoxy-1H-indazole-3-carboxamide]	6.01
C/C=C/C(=O)NCCCN1CCC(CNC(=O)c2n[nH]c3ccc(OC)cc23)CC1 [Compound 38, N-[(1-{3-[(2E)-but-2-enoylamino]propyl}piperidin-4-yl)methyl]-5-methoxy-1H-indazole-3-carboxamide]	6.11
CCC(=O)NCCCN1CCC(CNC(=O)c2n[nH]c3ccc(OC)cc23)CC1 [Compound 39, 5-methoxy-N-({1-[3-(propanoylamino)propyl]piperidin-4-yl}methyl)-1H-indazole-3-carboxamide]	6.02
CC#CC(=O)NCCCN1CCC(CNC(=O)c2n[nH]c3ccc(OC)cc23)CC1 [Compound 40, N-({1-[3-(but-2-ynoylamino)propyl]piperidin-4-yl}methyl)-5-methoxy-1H-indazole-3-carboxamide]	6.06

molecular target: T1, human GSK-3β; test: Activity on human GSK-3β, LANCE substrate phosphorylation assay; type: biochemical; details: 10 μM, in duplicate, first screening assay
Procedure: Activity on human GSK-3β was assessed using the following methods (according to Meijer et al., Chem. Biol., 2003-10:1255-1266).
In a first screening assay, compounds were tested in duplicate at a concentration of 10 μM.
Human recombinant enzyme GSK-3β was incubated for 90 minutes at 22° C. in the presence of compounds or vehicle in a reaction buffer containing ATP plus 100 nM unphosphorylated specific substrate peptide (Ulight-[…] K-amide). Substrate phosphorylation was measured by LANCE technology (PerkinElmer, Conn., USA).
In a second assay, the same compounds were assayed at five concentrations ranging from 100 μM to 10 nM with ten-fold dilutions in duplicate.
as §1

Compound	inhibition at 10 µM [%]
O=C(O)CN1CCC(CNC(=O)c2n[nH]c3cc(O)c(Br)cc23)CC1 [Compound 41, [4-({[(5-bromo-6-hydroxy-1H-indazol-3-yl)carbonyl]amino}methyl)piperidin-1-yl] acetic acid]	71

same assay, conditions: compounds 1 to 15, LANCE assay, five concentrations 100 μM to 10 nM

Compound	pIC50
COCCN1CCC(CNC(=O)c2n[nH]c3ccc(-c4cccnc4)cc23)CC1 [Compound 4, N-{[1-(2-methoxyethyl)piperidin-4-yl]methyl}-5-(pyridin-3-yl)-1H-indazole-3-carboxamide]	7.52
COCCN1CCC(CNC(=O)c2n[nH]c3ccc(-c4cnccc4OC)cc23)CC1 [Compound 5, N-{[1-(2-methoxyethyl)piperidin-4-yl]methyl}-5-(4-methoxypyridin-3-yl)-1H-indazole-3-carboxamide]	7.30
COCCN1CCC(CNC(=O)c2n[nH]c3ccc(-c4ccccc4F)cc23)CC1 [Compound 6, 5-(2-fluorophenyl)-N-{[1-(2-methoxyethyl)piperidin-4-yl]methyl}-1H-indazole-3-carboxamide]	7.15
COCCN1CCC(CNC(=O)c2n[nH]c3ccc(-c4ccc(C)nc4)cc23)CC1 [Compound 7, N-{[1-(2-methoxyethyl)piperidin-4-yl]methyl}-5-(6-methylpyridin-3-yl)-1H-indazole-3-carboxamide]	7.22
COCCN1CCC(CNC(=O)c2n[nH]c3ccc(-c4ccccc4)cc23)CC1 [Compound 9, N-{[1-(2-methoxyethyl)pipendin-4-yl]methyl}-5-phenyl-1H-indazole-3-carboxamide]	6.70
COCCN1CCC(CNC(=O)c2n[nH]c3ccc(-c4cncc(OC)c4)cc23)CC1 [Compound 10, N-{[1-(2-methoxyethyl)piperidin-4-yl]methyl}-5-(5-methoxypyridin-3-yl)-1H-indazole-3-carboxamide]	7.52
COCCN1CCC(CNC(=O)c2n[nH]c3ccc(-c4ccc(O)cc4)cc23)CC1 [Compound 11, 5-(4-hydroxyphenyl)-N-{[1-(2-methoxyethyl)piperidin-4-yl]methyl}-1H-indazole-3-carboxamide]	6.05
COCCN1CCC(CNC(=O)c2n[nH]c3ccc(-c4ccc(OC)cc4)cc23)CC1 [Compound 12, N-{[1-(2-methoxyethyl)piperidin-4-yl]methyl}-5-(4-methoxyphenyl)-1H-indazole-3-carboxamide]	6.25
COCCN1CCC(CNC(=O)c2n[nH]c3ccc(-c4ccc(C)cc4)cc23)CC1 [Compound 13, N-{[1-(2-methoxyethyl)piperidin-4-yl]methyl}-5-(4-methylphenyl)-1H-indazole-3-carboxamide]	6.25
COCCN1CCC(CNC(=O)c2n[nH]c3ccc(-c4cccnc4OC)cc23)CC1 [Compound 14, N-{[1-(2-methoxyethyl)piperidin-4-yl]methyl}-5-(2-methoxypyridin-3-yl)-1H-indazole-3-carboxamide]	5.85
COCCN1CCC(CNC(=O)c2n[nH]c3ccc(-c4ccc(OC)nc4)cc23)CC1 [Compound 15, N-{[1-(2-methoxyethyl)piperidin-4-yl]methyl}-5-(6-methoxypyridin-3-yl)-1H-indazole-3-carboxamide]	7.30
